{"source": "patent US20070196510A1", "about": "“Method for treating resistant hypertension” (priority 2006, published 2007)", "key": {"[1]": {"test_system": "patients with resistant hypertension", "experiment": "Same clinical study: urinary albumin to creatinine ratio", "format": "in vivo, human", "experimental": "(§1) Co-primary efficacy endpoints were the changes from baseline through weeks 8 and 10 (i.e., doses of 150 and 300 mg) in trough sitting SBP. Blood pressure was measured at every study visit (baseline and weeks 2, 4, 6, 8 and 10) using standard sphygmomanometry. Secondary variables included 24-hour SBP as measured by ambulatory blood pressure monitoring (ABPM), percentage of patients who achieved SBP goal, trough sitting DBP, and urinary albumin to creatinine ratio. Ambulatory blood pressure monitoring was recorded once before randomization and repeated during the 24 hours immediately preceding the week 10 study visit. Urine samples for determination of albumin to creatinine ratio were collected at screening, baseline and week 10."}, "[2]": {"test_system": "patients with resistant hypertension", "experiment": "Same clinical study: 24-hour ambulatory blood pressure monitoring (ABPM)", "format": "in vivo, human", "experimental": "as §1\n(§2) A nonlinear mixed effect model was used for the analysis of change in blood pressure, with comorbidity status as a covariate. This model used all observed blood pressure measurements with no imputation for missing values. Linear contrast statements were used to test the slope through a given time point to test the effect of the dose administered on that week. Estimates of treatment effect were obtained via least square means. Response rates were compared with logistic regression models at each blood pressure measurement with comorbidity status as a covariate; missing values were imputed with last observation carried forward for these models. Safety summaries include all patients who received ≧1 dose of blinded study medication.\nIn this randomized, double-blind, multi-center study, subjects underwent a 2-week placebo run-in, followed by 2:1 randomization to darusentan or placebo once daily for 10 weeks. Subjects were initiated on 10 mg of study drug and underwent dose-escalation every 2 weeks through doses of 50, 100 and 150 mg until a maximum dose of 300 mg was achieved. Change from baseline to week 10 in 24-hour ambulatory blood pressure (ABP) was a secondary efficacy endpoint. All available ABP data were included in the analyses (observed population)."}, "[3]": {"test_system": "patients with moderate hypertension", "details": "10 to 100 mg/day, no other antihypertensive drugs; cited from earlier work"}, "[4]": {"test_system": "patients with resistant hypertension", "experiment": "Randomized, double-blind, placebo-controlled dose-titration study: sitting blood pressure by standard sphygmomanometry", "format": "in vivo, human", "details": "for patients achieving SBP goal, % / patients achieving SBP goal, responders n: n = 76; for placebo-corrected change from baseline in trough sitting SBP: post-hoc", "experimental": "In this randomized, double-blind, placebo-controlled, dose-titration study, 115 patients with resistant hypertension as defined by JNC 7 guidelines were randomized 2:1 to receive escalating doses of darusentan (10, 50, 100, 150 and 300 mg) or placebo once daily for 10 weeks. Darusentan dose was increased every 2 weeks.\nPatients (35 to 85 years of age) with resistant hypertension as defined by the JNC 7 guidelines and who were treated with and adhered to full doses of JNC 7 recommended antihypertensives, including a diuretic and two or more antihypertensive medications from different drug classes, defined as (a) ACE inhibitors and angiotensin II receptor blockers, (b) beta-adrenergic receptor blockers, and (c) calcium channel blockers, were eligible to participate in the study. Patients also were required to have an estimated glomerular filtration rate (GFR)≧30 mL/min/1.73 m^2 during the screening period. Women of childbearing potential were required to have a negative serum pregnancy test at the screening visit and a negative urine pregnancy test at baseline, and they must have agreed to use a reliable double-barrier method of contraception throughout the study and for at least 4 weeks after the last study visit. Patients with an average sitting SBP≧180 mmHg, DBP≧110 mmHg, hemoglobin A1c>10%, hemoglobin concentration<10 g/dL, hematocrit<30%, serum thyroid stimulating hormone concentration>1.5× the upper limit of normal (ULN), or serum alanine aminotransferase (ALT) or aspartate aminotransferase (AST)>2×ULN during the screening period were excluded from the study. […] All patients provided written informed consent.\nIn this randomized, double-blind, placebo-controlled, dose-titration study, patients were randomized 2:1 to receive escalating doses of darusentan or placebo once daily in the morning for 10 weeks after completing a 2-week placebo run-in period (FIG. 1). Darusentan was initiated at a dose of 10 mg/day and escalated every 2 weeks at doses of 50, 100 and 150 mg/day until reaching a maximum of 300 mg/day. […] Patients were withdrawn from the study if a subsequent dose reduction was required. After completion of the 10-week treatment period, patients were withdrawn from study medication over a maximum of 2 weeks. This study was approved by an Institutional Review Board/Independent Ethics Committee and conducted in accordance with the principles of Good Clinical Practices and the revised Declaration of Helsinki.\nas §1\nas §2, with “medication. […]” for “medication.”"}}, "note": "Where “and” joins values, the source holds several entries; their conditions need not be identical. Identical values can stand only once. Entries after “also recorded” stand apart in the source; their conditions may differ."}
{"smiles": "COc1cc(OC)nc(O[C@H](C(=O)O)C(OC)(c2ccccc2)c2ccccc2)n1", "note": "[Darusentan, (+)-(S)-2-[(4,6-dimethoxy-2-pyrimidinyl)oxy]-3-methoxy-3,3-diphenylpropionic acid]", "values": [{"measurement": "geometric mean albumin to creatinine ratio at week 10", "setting": "[1]; all observed patients, n 65, baseline 12.6", "value": 9.4, "unit": "mg/g"}, {"measurement": "decrease from baseline in geometric mean urinary albumin to creatinine ratio", "setting": "[1]; all observed patients, placebo increased 6.2%", "value": 25.3, "unit": "%"}, {"measurement": "geometric mean albumin to creatinine ratio at week 10", "setting": "[1]; baseline ratio >30 mg/g, n 12, baseline 145.4", "value": 73.6, "unit": "mg/g"}, {"measurement": "geometric mean albumin to creatinine ratio at week 10", "setting": "[1]; baseline ratio ≦30 mg/g, n 53, baseline 7.2", "value": 5.9, "unit": "mg/g"}, {"measurement": "albumin to creatinine ratio, % change from baseline, mean (SE)", "setting": "[1]; week 10, all observed patients, n 65", "value": "−25.3 (8.9) %"}, {"measurement": "albumin to creatinine ratio, % change from baseline, mean (SE)", "setting": "[1]; week 10, baseline ratio >30 mg/g, n 12", "value": "−49.4 (23.6) %"}, {"measurement": "albumin to creatinine ratio, % change from baseline, mean (SE)", "setting": "[1]; week 10, baseline ratio ≦30 mg/g, n 53", "value": "−18.4 (8.3) %"}, {"measurement": "placebo-adjusted reduction in mean 24-hour diastolic ABP", "setting": "[2]; 300 mg, week 10", "value": "7.2±1.6", "unit": "mmHg"}, {"measurement": "placebo-adjusted 24-hour ambulatory DBP, change from baseline", "setting": "[2]; ABPM at week 10", "value": "−7.2 mmHg and −7.2±1.6 mmHg"}, {"measurement": "placebo-adjusted 24-hour ambulatory SBP, change from baseline", "setting": "[2]; ABPM at week 10", "value": "−9.2 mmHg and −9.2±2.2 mmHg"}, {"measurement": "blood pressure reduction over the 24-hour monitoring period", "setting": "[2]; ABPM week 10, once daily dosing", "value": "maintained throughout the 24-hour monitoring period; also recorded: maintained over 24 hours; also recorded: remained consistently lower throughout the dosing interval"}, {"measurement": "improvement in placebo-adjusted diurnal SBP", "setting": "[2]; after 10 weeks, post-hoc analysis", "value": 8.7, "unit": "mmHg"}, {"measurement": "placebo-adjusted change from baseline in mean ABPM-determined nocturnal DBP", "setting": "[2]; week 10", "value": "−5.9", "unit": "mm Hg"}, {"measurement": "placebo-adjusted change from baseline in mean ABPM-determined nocturnal SBP", "setting": "[2]; week 10", "value": "−9.9", "unit": "mm Hg"}, {"measurement": "decrease in day-time SBP", "setting": "[2]; week 10, placebo 2.2±2.4", "value": "10.9±1.4", "unit": "mmHg"}, {"measurement": "improvement in peak DBP as recorded by ABPM", "setting": "[2]; week 10, placebo 2.3", "value": 9.2, "unit": "mmHg"}, {"measurement": "decrease in night-time SBP", "setting": "[2]; week 10, placebo 3.8±2.7", "value": "11.9±1.6", "unit": "mmHg"}, {"measurement": "improvement in peak SBP as recorded by ABPM", "setting": "[2]; week 10, placebo 6.0", "value": 14.1, "unit": "mmHg"}, {"measurement": "Day/night SBP ratio", "setting": "[2]; week 10, placebo 6.8%", "value": 9.5, "unit": "%"}, {"measurement": "effect on SBP and DBP by comparison with placebo", "setting": "[3]", "value": "significantly reduce SBP and DBP"}, {"measurement": "sitting and standing blood pressure during withdrawal", "setting": "[4]; 2-week withdrawal period after week 10, no significant difference vs placebo", "value": "increased"}, {"measurement": "dose dependence of improvements in trough sitting SBP and DBP", "setting": "[4]; 10 to 300 mg once daily, escalated every 2 weeks", "value": "dose dependent"}, {"measurement": "reduction in peak sitting DBP", "setting": "[4]; by week 10", "value": 8.2, "unit": "mmHg"}, {"measurement": "reduction in peak sitting SBP", "setting": "[4]; by week 10, placebo 9.9", "value": 17.1, "unit": "mmHg"}, {"measurement": "average trough sitting DBP at end of treatment", "setting": "[4]; study end (week 10), baseline 80.6", "value": 73.9, "unit": "mmHg"}, {"measurement": "average trough sitting SBP at end of treatment", "setting": "[4]; study end (week 10), baseline 146.3", "value": 132.6, "unit": "mmHg"}, {"measurement": "patients achieving SBP goal, %", "setting": "[4]; week 2 (10 mg)", "value": 30.3, "unit": "%"}, {"measurement": "patients achieving SBP goal, responders n", "setting": "[4]; week 2 (10 mg)", "value": 23}, {"measurement": "placebo-adjusted mean trough sitting DBP, change from baseline", "setting": "[4]; week 4 (50 mg dose)", "value": "−4.9", "unit": "mmHg"}, {"measurement": "patients achieving SBP goal, %", "setting": "[4]; week 4 (50 mg)", "value": 47.4, "unit": "%"}, {"measurement": "patients achieving SBP goal, responders n", "setting": "[4]; week 4 (50 mg)", "value": 36}, {"measurement": "patients achieving SBP goal, %", "setting": "[4]; week 6 (100 mg)", "value": 44.7, "unit": "%"}, {"measurement": "patients achieving SBP goal, responders n", "setting": "[4]; week 6 (100 mg)", "value": 34}, {"measurement": "change from baseline in mean trough sitting SBP, difference between groups", "setting": "[4]; week 8 (150 mg dose), vs placebo", "value": "not statistically significant"}, {"measurement": "patients achieving SBP goal, %", "setting": "[4]; week 8 (150 mg)", "value": 42.1, "unit": "%"}, {"measurement": "patients achieving SBP goal, responders n", "setting": "[4]; week 8 (150 mg)", "value": 32}, {"measurement": "placebo-adjusted mean trough sitting DBP, change from baseline", "setting": "[4]; week 10 (300 mg dose), add-on therapy", "value": "−5.8 mmHg and −5.8±2.3 mmHg"}, {"measurement": "placebo-adjusted mean trough sitting SBP, change from baseline", "setting": "[4]; week 10 (300 mg dose), oral once daily, add-on to >=3 full-dose antihypertensives incl. diuretic", "value": "−11.6 mmHg and −11.6±3.3 mmHg"}, {"measurement": "patients achieving SBP goal, %", "setting": "[4]; week 10 (300 mg), JNC 7 goal", "value": "49% and 48.7%"}, {"measurement": "patients achieving SBP goal, responders n", "setting": "[4]; week 10 (300 mg)", "value": 37}, {"measurement": "placebo-corrected change from baseline in trough sitting SBP", "setting": "[4]; week 10 (300 mg), subjects on >=4 antihypertensive drugs", "value": "−12.71", "unit": "mmHg"}, {"measurement": "placebo-corrected change from baseline in trough sitting SBP", "setting": "[4]; week 10 (300 mg), subjects on exactly 3 antihypertensive drugs", "value": "−9.39", "unit": "mmHg"}, {"measurement": "subjects with decrease in SBP of at least 20 mmHg", "setting": "[4]; week 10, post-hoc, placebo 26%", "value": "about 46%"}, {"measurement": "subjects with change from baseline of at least 10 mmHg for SBP", "setting": "[4]; week 10, post-hoc, placebo 46%", "value": "approximately 64%"}, {"measurement": "subjects achieving SBP goal or a decrease in SBP of at least 10 mmHg", "setting": "[4]; week 10, post-hoc, placebo 49%", "value": 71, "unit": "%"}, {"measurement": "subjects achieving SBP goal or a decrease in SBP of at least 10 mmHg", "setting": "[4]; week 10, subjects on >=4 antihypertensive drugs, placebo 38%", "value": 66, "unit": "%"}, {"measurement": "subjects achieving SBP goal or a decrease in SBP of at least 10 mmHg", "setting": "[4]; week 10, subjects on exactly 3 antihypertensive drugs, placebo 57%", "value": 76, "unit": "%"}]}
